Source: article PMC5052628, “Fragment-based de novo design of a cystathionine γ-lyase selective inhibitor blocking hydrogen sulfide production” (Scientific Reports, 2016)

How the values were obtained:
[1] = biological target: T1, cystathionine-γ-lyase (CSE) (Homo sapiens, UniProt P32929); experiment: methylene blue H2S assay, concentration-response; type: biochemical
T1 construct: gene CTH; N-terminal GST fusion (pGEX-4T3), expressed in E. coli BL21(DE3) Codon Plus; eluted with reduced GSH, no tag cleavage described

[2] = biological target: T2, cystathionine-ß-synthase (CBS) (Homo sapiens, UniProt P35520); experiment: absorbance spectroscopy; type: binding; conditions: bound at Lys119
T2 construct: N-terminal GST fusion (pGEX-Kg), expressed in E. coli BL21(DE3) Codon Plus; eluted with reduced GSH, no tag cleavage described; homotetramer
T2 sequence (P35520 1-551): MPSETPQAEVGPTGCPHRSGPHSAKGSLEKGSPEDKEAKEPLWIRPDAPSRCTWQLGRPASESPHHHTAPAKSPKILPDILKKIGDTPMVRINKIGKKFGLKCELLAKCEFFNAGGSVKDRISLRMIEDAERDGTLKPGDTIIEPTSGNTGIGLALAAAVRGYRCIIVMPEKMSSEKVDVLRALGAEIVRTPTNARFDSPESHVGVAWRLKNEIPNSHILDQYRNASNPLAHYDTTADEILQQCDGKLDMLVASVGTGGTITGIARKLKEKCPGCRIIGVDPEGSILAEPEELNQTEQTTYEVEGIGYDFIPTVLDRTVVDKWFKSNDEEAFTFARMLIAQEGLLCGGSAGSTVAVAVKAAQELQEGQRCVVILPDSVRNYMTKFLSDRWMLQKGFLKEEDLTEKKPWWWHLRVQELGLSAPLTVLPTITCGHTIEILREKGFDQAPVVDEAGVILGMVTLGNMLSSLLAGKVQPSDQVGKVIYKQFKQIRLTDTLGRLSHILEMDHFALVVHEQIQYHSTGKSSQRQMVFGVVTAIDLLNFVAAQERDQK

[3] = biological target: T1, cystathionine-γ-lyase (CSE); experiment: absorbance spectroscopy; type: binding; conditions: covalently attached to Lys212
[4] = biological target: T1, cystathionine-γ-lyase (CSE); experiment: methylene blue H2S assay, secondary plot of Lineweaver-Burk slopes; type: biochemical

T1 sequence (P32929 whole entry, the tested form may be a part): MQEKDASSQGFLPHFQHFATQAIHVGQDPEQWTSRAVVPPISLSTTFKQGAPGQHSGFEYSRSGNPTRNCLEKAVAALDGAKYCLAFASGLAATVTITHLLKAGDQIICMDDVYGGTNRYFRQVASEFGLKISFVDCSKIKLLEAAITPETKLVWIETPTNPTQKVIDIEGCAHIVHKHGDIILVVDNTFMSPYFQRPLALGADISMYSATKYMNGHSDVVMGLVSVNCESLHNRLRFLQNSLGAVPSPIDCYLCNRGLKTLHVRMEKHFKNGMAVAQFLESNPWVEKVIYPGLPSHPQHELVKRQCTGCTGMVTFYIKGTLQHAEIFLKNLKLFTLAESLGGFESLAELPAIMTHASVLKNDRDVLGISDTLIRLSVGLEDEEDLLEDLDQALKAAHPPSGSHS

IC50 [1] [µM]	Ki [4] [µM]	Structure (SMILES)	absorbance spectroscopy [2]	absorbance spectroscopy [3]
42.2 ± 1.1		C#CCC(N)C(=O)O (centres unmarked) [PAG]		
		Cc1ncc(COP(=O)(O)O)c(C=O)c1O [PLP]	enzymes are correctly folded and bind the respective prosthetic groups	enzymes are correctly folded and bind the respective prosthetic groups
6.3 ± 1	13	C#CCNC(=O)[C@@H]1CSC(=O)N1 [2a, compound 2a]		
